Test results taken from patent publication US20230339970A1, “CASEIN KINASE 1 DELTA MODULATORS” (priority 2020, published 2023).

Tests used:
human CSNK1D = target: T1, human CSNK1D (Homo sapiens, UniProt P48730); assay: Whole Cell nBRET CSNK1D Binding Assay; details: living CHO cells stably expressing human CSNK1D tagged with nanoluciferase; NanoBret tracer 130 nM; 2 hours at 37 C
T1 construct: expressed in transfected cells

[1] = target: T2, human recombinant GST cleaved CSNK1D (Homo sapiens, UniProt P48730); assay: Purified Enzyme Assay (ADP-Glo CSNK1D Kinase Assay); assay type: biochemical; details: 2 nM CSNK1D; peptide substrate 150 μM; ATP 20 μM; 45 minutes at room temperature
T2 construct: GST (cleaved yes); purchased University of Dundee clone DU 19064
Method in brief: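 Percent activity derived from ADP-Glo quantification of ADP produced. Reactions: compound dose-response with human recombinant GST-cleaved CSNK1D, ATP and substrate peptide PLSRTL-pS-VASLPGL, incubated 45 min at room temperature.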

T1 sequence (P48730 whole entry): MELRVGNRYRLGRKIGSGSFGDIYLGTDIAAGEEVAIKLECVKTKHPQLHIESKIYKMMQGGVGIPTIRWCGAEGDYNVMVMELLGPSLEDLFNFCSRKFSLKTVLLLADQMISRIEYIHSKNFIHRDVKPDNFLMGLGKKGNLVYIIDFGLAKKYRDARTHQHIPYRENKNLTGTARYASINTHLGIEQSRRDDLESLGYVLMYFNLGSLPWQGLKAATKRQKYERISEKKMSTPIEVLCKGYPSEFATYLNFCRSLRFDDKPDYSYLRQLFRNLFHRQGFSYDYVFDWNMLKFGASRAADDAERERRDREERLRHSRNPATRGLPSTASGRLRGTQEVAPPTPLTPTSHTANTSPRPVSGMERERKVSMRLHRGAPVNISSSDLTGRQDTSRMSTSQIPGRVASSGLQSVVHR
T2 sequence (P48730 whole entry): as above

IC50 (human CSNK1D)	IC50 [1]	SMILES
165 nM	8 nM	Cc1cc(-c2c(-c3ccc(F)cn3)nn3c2O[C@@H](C)C[C@@H]3C)c2cn[nH]c2n1 (single isomer, unassigned) [Example 209, (5*S,7*S)-2-(5-Fluoro-2-pyridyl)-5,7-dimethyl-3-(6-methyl-1H-pyrazolo[3,4-b]pyridin-4-yl)-6,7-dihydro-5H-pyrazolo[5,1-b][1,3]oxazine]
22 nM	2 nM	Fc1ccc(-c2nn3c(c2-c2c(F)cnc4[nH]ncc24)CCC2(C3)CC2(F)F)nc1 (single isomer, unassigned) [Example 330, (*R)-2,2-Difluoro-3′-(5-fluoro-1H-pyrazolo[3,4-b]pyridin-4-yl)-2′-(5-fluoropyridin-2-yl)-4′,5′-dihydro-7′H-spiro[cyclopropane-1,6′-pyrazolo[1,5-a]pyridine]]
34 nM	4 nM	COC[C@]1(F)CCc2c(-c3cc(C)nc4[nH]ncc34)c(-c3ccc(F)cn3)nn2C1 (single isomer, unassigned) [Example 304, (*S)-4-[6-Fluoro-2-(5-fluoro-2-pyridyl)-6-(methoxymethyl)-5,7-dihydro-4H-pyrazolo[1,5-a]pyridin-3-yl]-6-methyl-1H-pyrazolo[3,4-b]pyridine]
8 nM	1 nM	Cc1cc(-c2c(-c3ccc(F)cc3)nn3c2C[C@@H]2C[C@@H]23)c2cn[nH]c2n1 [Example 270]
24 nM	2 nM	Fc1ccc(-c2nn3c(c2-c2ccnc4[nH]ncc24)OCC2(CC2)C3)nc1 [Example 460, 2′-(5-Fluoropyridin-2-yl)-3′-(1H-pyrazolo[3,4-b]pyridin-4-yl)-5′H,7′H-spiro[cyclopropane-1,6′-pyrazolo[5,1-b][1,3]oxazine]]
43 nM	7 nM	Fc1ccc(-c2nn3c(c2-c2ccnc4[nH]ccc24)COCC3)cc1 [Example 69, 2-(4-Fluorophenyl)-3-(1H-pyrrolo[2,3-b]pyridin-4-yl)-6,7-dihydro-4H-pyrazolo[5,1-c][1,4]oxazine]
995 nM	65 nM	c1cc(-c2c(-c3cscn3)nn3c2CCCC3)c2cn[nH]c2n1 [Example 31, 4-(3-(1H-Pyrazolo[3,4-b]pyridin-4-yl)-4,5,6,7-tetrahydropyrazolo[1,5-a]pyridin-2-yl)thiazole]
171 nM	15 nM	CC1(C)Cn2nc(-c3ccc(F)cn3)c(-c3ccn4ncc(Cl)c4c3)c2CO1 [Example 384, 3-(3-Chloropyrazolo[1,5-a]pyridin-5-yl)-2-(5-fluoropyridin-2-yl)-6,6-dimethyl-6,7-dihydro-4H-pyrazolo[5,1-c][1,4]oxazine]
8060 nM	370 nM	COC1(C)COCc2c(-c3ccnc4[nH]ncc34)c(-c3ccc(F)cn3)nn2C1 (single isomer, unassigned) [Example 485, (*S)-2-(5-Fluoropyridin-2-yl)-7-methoxy-7-methyl-3-(1H-pyrazolo[3,4-b]pyridin-4-yl)-7,8-dihydro-4H,6H-pyrazolo[5,1-c][1,4]oxazepine]
95 nM	5 nM	[2H]C([2H])([2H])C1(C([2H])([2H])[2H])Cn2nc(-c3ccc(F)cn3)c(-c3c(F)cnc4[nH]ncc34)c2CO1 [Example 399, 3-(5-Fluoro-1H-pyrazolo[3,4-b]pyridin-4-yl)-2-(5-fluoropyridin-2-yl)-6,6-bis(methyl-d3)-6,7-dihydro-4H-pyrazolo[5,1-c][1,4]oxazine]
371 nM	22 nM	C[C@@H]1Cn2nc(-c3ccc(F)cn3)c(-c3ccnc4[nH]ncc34)c2CO1 (single isomer, unassigned) [Example 85, (*R)-2-(5-Fluoro-2-pyridyl)-6-methyl-3-(1H-pyrazolo[3,4-b]pyridin-4-yl)-6,7-dihydro-4H-pyrazolo[5,1-c][1,4]oxazine]
12 nM	1 nM	Fc1ccc(-c2nn3c(c2-c2ccnc4[nH]ncc24)C2CCC3CC2)cc1 [Example 64, 2-(4-Fluorophenyl)-3-(1H-pyrazolo[3,4-b]pyridin-4-yl)-4,5,6,7-tetrahydro-4,7-ethanopyrazolo[1,5-a]pyridine]
1590 nM	67 nM	CCn1ncc2cc(-c3c(-c4ccc(F)cn4)nn4c3OCC(C)C4)cnc21 (centres unmarked) [Example 444, 3-(1-Ethyl-1H-pyrazolo[3,4-b]pyridin-5-yl)-2-(5-fluoropyridin-2-yl)-6-methyl-6,7-dihydro-5H-pyrazolo[5,1-b][1,3]oxazine]
198 nM	10 nM	C[C@@H]1C[C@H](C)Oc2c(-c3ccnc4[nH]ncc34)c(-c3ccc(F)cn3)nn21 (single isomer, unassigned) [Example 202, (5*S,7*R)-2-(5-Fluoro-2-pyridyl)-5,7-dimethyl-3-(1H-pyrazolo[3,4-b]pyridin-4-yl)-6,7-dihydro-5H-pyrazolo[5,1-b][1,3]oxazine]
37 nM	2 nM	Fc1ccc(-c2nn3c(c2-c2ccnc4[nH]ncc24)COCC3)cc1 [Example 70, 2-(4-Fluorophenyl)-3-(1H-pyrazolo[3,4-b]pyridin-4-yl)-6,7-dihydro-4H-pyrazolo[5,1-c][1,4]oxazine]
201 nM	13 nM	CC1(C)COCc2c(-c3ccnc4[nH]ncc34)c(-c3ccc(F)cc3)nn21 [Example 120, 2-(4-Fluorophenyl)-7,7-dimethyl-3-(1H-pyrazolo[3,4-b]pyridin-4-yl)-4,6-dihydropyrazolo[5,1-c][1,4]oxazine]
39 nM	4 nM	CC1CCCc2c(-c3ccnc4[nH]ncc34)c(-c3ccc(F)cc3)nn21 (single isomer, unassigned) [Example 39, (*R)-4-[2-(4-Fluorophenyl)-7-methyl-4,5,6,7-tetrahydropyrazolo[1,5-a]pyridin-3-yl]-1H-pyrazolo[3,4-b]pyridine]
13 nM	2 nM	Fc1ccc(-c2nn3c(c2-c2ccnc4[nH]ncc24)CC2(CC2)C3)cc1 [Example 247, 2-(4-Fluorophenyl)-3-(1H-pyrazolo[3,4-b]pyridin-4-yl)spiro[4,6-dihydropyrrolo[1,2-b]pyrazole-5,1′-cyclopropane]]
7800 nM	404 nM	CCn1ncc2cc(-c3c(-c4ccc(F)cn4)nn4c3CO[C@@H](C)C4)cnc21 [Example 371, (S)-3-(1-Ethyl-1H-pyrazolo[3,4-b]pyridin-5-yl)-2-(5-fluoropyridin-2-yl)-6-methyl-6,7-dihydro-4H-pyrazolo[5,1-c][1,4]oxazine]
352 nM	16 nM	CC1COCc2c(-c3ccnc(CO)c3)c(-c3ccc(F)cc3)nn21 (centres unmarked) [Example 90, (4-(2-(4-Fluorophenyl)-7-methyl-6,7-dihydro-4H-pyrazolo[5,1-c][1,4]oxazin-3-yl)pyridin-2-yl)methanol]
124 nM	16 nM	Cc1n[nH]c2nccc(-c3c(-c4ccc(F)cn4)nn4c3CO[C@@](C)(C(F)(F)F)C4)c12 (single isomer, unassigned) [Example 418, (*R)-2-(5-Fluoropyridin-2-yl)-6-methyl-3-(3-methyl-1H-pyrazolo[3,4-b]pyridin-4-yl)-6-(trifluoromethyl)-6,7-dihydro-4H-pyrazolo[5,1-c][1,4]oxazine]
2 nM	1 nM	Cc1cc(-c2c(-c3ccc(F)cc3)nn3c2C[C@H](F)C3)c2cn[nH]c2n1 [Example 12, (S)-4-(5-Fluoro-2-(4-fluorophenyl)-5,6-dihydro-4H-pyrrolo[1,2-b]pyrazol-3-yl)-6-methyl-1H-pyrazolo[3,4-b]pyridine]
243 nM	20 nM	Clc1ccc(-c2nn3c(c2-c2ccnc4[nH]ncc24)COCC3)cc1 [Example 67, 2-(4-Chlorophenyl)-3-(1H-pyrazolo[3,4-b]pyridin-4-yl)-6,7-dihydro-4H-pyrazolo[5,1-c][1,4]oxazine]
702 nM	15 nM	CC1(C)Cn2nc(-c3c(F)cncc3F)c(-c3ccnc4[nH]ncc34)c2CO1 [Example 165, 2-(3,5-Difluoropyridin-4-yl)-6,6-dimethyl-3-(1H-pyrazolo[3,4-b]pyridin-4-yl)-6,7-dihydro-4H-pyrazolo[5,1-c][1,4]oxazine]
297 nM	12 nM	COCC1CCc2c(-c3cc(C)nc4[nH]ncc34)c(-c3ccc(F)cn3)nn2C1 (single isomer, unassigned) [Example 297, (*R)-4-[2-(5-Fluoro-2-pyridyl)-6-(methoxymethyl)-4,5,6,7-tetrahydropyrazolo[1,5-a]pyridin-3-yl]-6-methyl-1H-pyrazolo[3,4-b]pyridine]
102 nM	7 nM	CC1(C)Cn2nc(-c3ncc(F)cc3F)c(-c3ccnc4[nH]ncc34)c2CO1 [Example 166, 2-(3,5-Difluoropyridin-2-yl)-6,6-dimethyl-3-(1H-pyrazolo[3,4-b]pyridin-4-yl)-6,7-dihydro-4H-pyrazolo[5,1-c][1,4]oxazine]
2260 nM	235 nM	[2H]C([2H])([2H])[C@]1(C(F)(F)F)Cn2nc(-c3ccc(F)cn3)c(-c3ccnc4[nH]nc(C)c34)c2CO1 (single isomer, unassigned) [Example 425, (*R)-2-(5-Fluoropyridin-2-yl)-6-(methyl-d3)-3-(3-methyl-1H-pyrazolo[3,4-b]pyridin-4-yl)-6-(trifluoromethyl)-6,7-dihydro-4H-pyrazolo[5,1-c][1,4]oxazine]

SMILES	IC50 (human CSNK1D)	IC50 [1]
CC1(C)COCc2c(-c3ccnc4[nH]ncc34)c(-c3ccc(F)cn3)nn21 [Example 122, 2-(5-Fluoro-2-pyridyl)-7,7-dimethyl-3-(1H-pyrazolo[3,4-b]pyridin-4-yl)-4,6-dihydropyrazolo[5,1-c][1,4]oxazine]	3410 nM	120 nM
